Experimental data as given in ChEMBL document CHEMBL2074231, “Influence of molecular structure on substrate binding to the human organic cation transporter, hOCT1” (Mol Pharmacol, 2003).

Target: T1, Solute carrier family 22 member 1 (Homo sapiens, UniProt O15245)
T1 sequence (O15245 whole entry): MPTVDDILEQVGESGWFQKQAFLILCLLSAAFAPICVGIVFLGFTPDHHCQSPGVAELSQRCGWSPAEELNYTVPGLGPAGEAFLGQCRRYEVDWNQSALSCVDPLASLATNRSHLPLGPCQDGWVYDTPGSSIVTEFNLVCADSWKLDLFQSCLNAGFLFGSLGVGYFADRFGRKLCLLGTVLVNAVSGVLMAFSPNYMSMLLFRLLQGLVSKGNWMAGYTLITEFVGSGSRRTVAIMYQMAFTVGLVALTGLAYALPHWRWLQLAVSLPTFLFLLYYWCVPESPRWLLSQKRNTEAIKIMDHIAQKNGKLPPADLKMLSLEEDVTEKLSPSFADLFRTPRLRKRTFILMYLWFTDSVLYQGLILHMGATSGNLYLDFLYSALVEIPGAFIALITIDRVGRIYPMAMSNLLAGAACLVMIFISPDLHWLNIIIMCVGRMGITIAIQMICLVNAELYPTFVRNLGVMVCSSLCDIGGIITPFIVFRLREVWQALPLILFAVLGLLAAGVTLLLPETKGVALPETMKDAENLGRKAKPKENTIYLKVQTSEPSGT
Assay: TP_TRANSPORTER: inhibition of TEA uptake in OCT1-expressing HeLa cells

IC50: 4.3 µM
Compound: CN(C)CCCN1c2ccccc2Sc2ccc(Cl)cc21 [CHLORPROMAZINE]
